Several values for one entry are separate records, joined by “and”; a condition that tells them apart may be missing. Equal values may be shown once. Toxic doses and inconclusive results are not listed. Rule as the data show it: active = T/C of 150% or more; inactive = T/C below 125%.
Tested on: L1210 leukemia ip in BDF1 mice, survival T/C
Assay: NCI In Vivo Anticancer Drug Screen. Data for tumor model L1210 Leukemia (intraperitoneal) in B6D2F1 (BDF1) mice
Conditions: endpoint: mean survival time, higher = longer survival
Procedure, shortened: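 Read-out is survival time, reported as the treated-group measurement over the vehicle-control measurement.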

[1] = dose: 100.0 mg/kg/injection, schedule: Q01DX009 (ip), vehicle: Klucel (hydroxypropylcellulose) (HPC)
[2] = dose: 100.0 mg/kg/injection, schedule: Q04DX003 (ip), vehicle: Klucel (hydroxypropylcellulose) (HPC)
[3] = dose: 200.0 mg/kg/injection, schedule: Q01DX009 (ip), vehicle: Klucel (hydroxypropylcellulose) (HPC)
[4] = dose: 200.0 mg/kg/injection, schedule: Q04DX003 (ip), vehicle: Klucel (hydroxypropylcellulose) (HPC)
[5] = dose: 400.0 mg/kg/injection, schedule: Q01DX009 (ip), vehicle: Klucel (hydroxypropylcellulose) (HPC)
[6] = dose: 400.0 mg/kg/injection, schedule: Q04DX003 (ip), vehicle: Klucel (hydroxypropylcellulose) (HPC)
[7] = dose: 25.0 mg/kg/injection, schedule: Q01DX009 (ip), vehicle: saline
[8] = dose: 100.0 mg/kg/injection, schedule: Q01DX001 (ip), vehicle: saline
[9] = dose: 100.0 mg/kg/injection, schedule: Q01DX009 (ip), vehicle: saline
[10] = dose: 200.0 mg/kg/injection, schedule: Q01DX001 (ip), vehicle: saline
[11] = dose: 400.0 mg/kg/injection, schedule: Q01DX001 (ip), vehicle: saline

Measured: T/C

O=C(CBr)c1cccc2c1ccc1ccccc12
inactive: dose: 1.56 mg/kg/injection, schedule: Q01DX009 (ip), vehicle: other 100 % of control | dose: 3.13 mg/kg/injection, schedule: Q01DX009 (ip), vehicle: other 95 % of control | dose: 6.25 mg/kg/injection, schedule: Q01DX009 (ip), vehicle: other 95 % of control and 98 % of control | dose: 12.5 mg/kg/injection, schedule: Q01DX005 (ip), vehicle: other 101 % of control | dose: 12.5 mg/kg/injection, schedule: Q04DX002 (ip), vehicle: other 102 % of control | dose: 25.0 mg/kg/injection, schedule: Q01DX005 (ip), vehicle: other 104 % of control | dose: 25.0 mg/kg/injection, schedule: Q04DX002 (ip), vehicle: other 91 % of control | dose: 50.0 mg/kg/injection, schedule: Q04DX002 (ip), vehicle: other 102 % of control

O=C(O)CCC(=O)Nc1ccccc1C(F)(F)F
inactive: dose: 100.0 mg/kg/injection, schedule: Q04DX003 (ip), vehicle: saline with Tween-80 104 % of control | dose: 200.0 mg/kg/injection, schedule: Q01DX009 (ip), vehicle: saline with Tween-80 93 % of control | dose: 200.0 mg/kg/injection, schedule: Q04DX003 (ip), vehicle: saline with Tween-80 98 % of control | dose: 400.0 mg/kg/injection, schedule: Q01DX009 (ip), vehicle: saline with Tween-80 86 % of control | dose: 400.0 mg/kg/injection, schedule: Q04DX003 (ip), vehicle: saline with Tween-80 90 % of control

CSc1ssc(=Nc2ccc(C)cc2)c1-c1ccccc1
inactive: [1] 95 % of control | [2] 88 % of control | [3] 93 % of control | [4] 91 % of control | [5] 93 % of control | [6] 89 % of control

Cc1cc2c(cc1C)N(C(=O)CN1CCCCC1)CC(=O)N2
inactive: dose: 75.0 mg/kg/injection, schedule: Q01DX001 (ip), vehicle: saline 93 % of control | dose: 150.0 mg/kg/injection, schedule: Q01DX001 (ip), vehicle: saline 91 % of control | dose: 300.0 mg/kg/injection, schedule: Q01DX001 (ip), vehicle: saline 93 % of control

Nc1ccccc1-c1ccccc1N
inactive: dose: 25.0 mg/kg/injection, schedule: Q04DX002 (ip), vehicle: saline 100 % of control | dose: 50.0 mg/kg/injection, schedule: Q04DX002 (ip), vehicle: saline 98 % of control | [1] 96 % of control | dose: 100.0 mg/kg/injection, schedule: Q04DX002 (ip), vehicle: saline 114 % of control | [2] 94 % of control | [3] 102 % of control | [4] 91 % of control | [5] 93 % of control | [6] 104 % of control

CN(C)/N=N/c1nc[nH]c1C(=O)N/N=C/c1ccc(N(CCCl)CCCl)cc1
inactive: dose: 100.0 mg/kg/injection, schedule: Q01DX001 (ip), vehicle: other 100 % of control | dose: 200.0 mg/kg/injection, schedule: Q01DX001 (ip), vehicle: other 104 % of control | dose: 400.0 mg/kg/injection, schedule: Q01DX001 (ip), vehicle: other 98 % of control

NC(Cc1cc([N+](=O)[O-])ccc1CN(CCCl)CCCl)C(=O)O (stereo unspecified)
active: dose: 3.6 mg/kg/injection, schedule: Q04DX003 (ip), vehicle: saline 161 % of control | dose: 6.0 mg/kg/injection, schedule: Q01DX001 (ip), vehicle: saline 198 % of control | dose: 6.0 mg/kg/injection, schedule: Q04DX003 (ip), vehicle: saline 158 % of control and 315 % of control | dose: 10.0 mg/kg/injection, schedule: Q01DX001 (ip), vehicle: saline 173 % of control and 248 % of control | dose: 10.0 mg/kg/injection, schedule: Q04DX003 (ip), vehicle: saline 163 % of control and 352 % of control | dose: 16.7 mg/kg/injection, schedule: Q01DX001 (ip), vehicle: saline 302 % of control and 309 % of control | dose: 16.7 mg/kg/injection, schedule: Q04DX003 (ip), vehicle: saline 151 % of control

CS/C(N)=N\N=C/c1ccccc1
inactive: dose: 6.25 mg/kg/injection, schedule: Q01DX009 (ip), vehicle: saline 102 % of control | dose: 12.5 mg/kg/injection, schedule: Q01DX009 (ip), vehicle: saline 102 % of control | dose: 25.0 mg/kg/injection, schedule: Q01DX001 (ip), vehicle: saline 117 % of control | [7] 102 % of control | dose: 25.0 mg/kg/injection, schedule: Q04DX003 (ip), vehicle: saline 97 % of control | dose: 50.0 mg/kg/injection, schedule: Q01DX001 (ip), vehicle: saline 97 % of control | [8] 102 % of control and 105 % of control

CC1(C)OCC2SC(n3cnc4c(N)ncnc43)C(O)C2O1 (stereo unspecified)
inactive: [7] 94 % of control | dose: 33.0 mg/kg/injection, schedule: Q01DX001 (ip), vehicle: carboxymethylcellulose (CMC) 97 % of control | dose: 50.0 mg/kg/injection, schedule: Q01DX009 (ip), vehicle: saline 98 % of control | dose: 66.5 mg/kg/injection, schedule: Q01DX001 (ip), vehicle: carboxymethylcellulose (CMC) 92 % of control | dose: 100.0 mg/kg/injection, schedule: Q01DX005 (ip), vehicle: saline 94 % of control and 97 % of control | [9] 98 % of control | dose: 133.0 mg/kg/injection, schedule: Q01DX001 (ip), vehicle: carboxymethylcellulose (CMC) 92 % of control | dose: 200.0 mg/kg/injection, schedule: Q01DX005 (ip), vehicle: saline 95 % of control

C=CCOCC(O)CN(C)c1ccccc1 (stereo unspecified)
inactive: [1] 101 % of control | [2] 96 % of control | [3] 112 % of control | [4] 95 % of control | [5] 91 % of control | [6] 93 % of control

C/C(=C/CO)CC/C=C(\C)CC/C=C(\C)CCC1OC1(C)C (stereo unspecified)
inactive: [8] 92 % of control | [10] 96 % of control | [11] 102 % of control

Cc1nc2ccccc2nc1CI
inactive: dose: 3.12 mg/kg/injection, schedule: Q01DX009 (ip), vehicle: acetone 100 % of control | dose: 6.25 mg/kg/injection, schedule: Q01DX009 (ip), vehicle: acetone 104 % of control | dose: 12.5 mg/kg/injection, schedule: Q01DX009 (ip), vehicle: acetone 100 % of control | dose: 12.5 mg/kg/injection, schedule: Q04DX003 (ip), vehicle: acetone 113 % of control | dose: 18.0 mg/kg/injection, schedule: Q01DX009 (ip), vehicle: saline with Tween-80 92 % of control

O=NN1CC2CCC1CC2
inactive: dose: 2.5 mg/kg/injection, schedule: Q01DX009 (ip), vehicle: saline 109 % of control | dose: 5.0 mg/kg/injection, schedule: Q01DX009 (ip), vehicle: saline 109 % of control | dose: 10.0 mg/kg/injection, schedule: Q01DX009 (ip), vehicle: saline 102 % of control

Cc1ccc(S(=O)(=O)N(C)c2cc(Cl)c(I)c(Cl)c2)cc1
inactive: [1] 98 % of control | [3] 94 % of control | [5] 96 % of control

C[N+]12CN3CN(CN(C3)C1)C2
inactive: dose: 50.0 mg/kg/injection, schedule: Q01DX001 (ip), vehicle: carboxymethylcellulose (CMC) 104 % of control | dose: 100.0 mg/kg/injection, schedule: Q01DX001 (ip), vehicle: carboxymethylcellulose (CMC) 106 % of control | [8] 100 % of control | [9] 110 % of control | dose: 200.0 mg/kg/injection, schedule: Q01DX001 (ip), vehicle: carboxymethylcellulose (CMC) 101 % of control | [10] 91 % of control | dose: 200.0 mg/kg/injection, schedule: Q01DX009 (ip), vehicle: saline 114 % of control | dose: 400.0 mg/kg/injection, schedule: Q01DX001 (ip), vehicle: carboxymethylcellulose (CMC) 98 % of control | [11] 96 % of control | dose: 400.0 mg/kg/injection, schedule: Q01DX009 (ip), vehicle: saline 105 % of control

Source: PubChem BioAssay AID248 (DTP/NCI, 2004)
